According to US5236955A, “Anti-fungal agent” (Washington University, priority 1992, dated 1993):

Experiments:
C. albicans NMT = molecular target: T1, C. albicans NMT (Candida albicans, UniProt P30418); assay: In vitro discontinuous NMT assay; type: biochemical; conditions: 40 μM fatty acid, HIV-1 Pr55gag octapeptide
T1 construct: made in house; host or cells: E. coli
Description: (§1) Details of the single point, discontinuous, in vitro NMT assay are described in Examples, below. A tritiated octapeptide derived from residues 2-9 of […] HIV-I Pr55^gag (GARA[^3 H]SVLS-NH2) was used in all assays. The amount of analogpeptide produced is expressed as a percentage of myristoylpeptide generated in a control incubation. All assays were performed in triplicate. The mean ±1 standard deviation is shown. Under the assay conditions employed, the amount of myristoylpeptide generated by purified E. coli-derived S. cerevisiae NMT ranged from 5×10^5 to 2×10^6 pmol/mg enzyme/min while the amount of myristolypeptide produced by purified E. coli-derived, C. albicans NMT ranged from 4×10^5 to 1.5×10^6 pmol/mg enzyme/mni.
(§2) In vitro discontinuous NMT assay--This assay was carried out by conventional procedures as described by Duronio et al., Methods: A Companion to Methods in Enzymol. 1, 253-263 (1990); Kishore et al., J. Biol. Chem. 266, 8835-8853 (1991). Briefly, a single point assay was performed by first converting myristic acid or a fatty acid analog (final concentration=40 μM) to its CoA thioester using Pseudomonas acylCoA synthetase (EC 6.2.1.3, Sigma Chemical Co.). Following a 25 min incubation at 30° C., purified E. coli derived S. cerevisiae or C. albicans NMT [Rudnick et al., Ibid. 265, 13370-13378 (1990); Wiegand et al., J. Biol. Chem. 267, 8591-8598 (1992)], final concentration=0.1 μg/ml, was added to the reaction mixture together with a tritiated peptide substrate derived from residues 2-9 of the HIV-1 Pr55^gag (Gly-Ala-Arg-[^3 H]Ala-Ser-Val-Leu-Ser-NH2) [Kishore et al., supra (1991); specific activity=1.2 Ci/mmol; final concentration=23 μM]. After an additional 10 min incubation at 30° C., the enzymatically generated, radiolabeled acylpeptide was purified by reverse phase HPLC and quantitated using an in-line scintillation counter [Kishore et al., supra, (1991)]. The amount of analogpeptide formed was expressed as a percentage of the amount of myristoylpeptide formed in a parallel reference assay. All assays were performed in duplicate or triplicate.
(§3) In vitro studies of purified S. cerevisiae and C. albicans NMT reveal differences in the kinetic properties of oxatetradecanoic and oxatridecanoic acid analogs--To begin to understand the mechanism which underlies the fungicidal activities of some but not all of the oxygen containing fatty acid analogs, the relative activities of the sixteen oxatri-, oxatetradecanoic acids and dioxatetradecanoic acids were examined in an in vitro assay. The two step assay measures NMT-dependent transfer of the acyl chain from an enzymatically generated acylCoA to a radiolabeled peptide substrate. […]

S. cerevisiae NMT = molecular target: T2, S. cerevisiae NMT (Saccharomyces cerevisiae, UniProt P14743); assay: In vitro discontinuous NMT assay; type: biochemical; conditions: 40 μM fatty acid, HIV-1 Pr55gag octapeptide
T2 construct: made in house; host or cells: E. coli
Description: as §1, §2, §3

C. neoformans [1] = assay: Viability of C. neoformans (viable cells relative to EtOH control culture); type: cell-based, Cryptococcus neoformans; conditions: for fungicidal / fungistatic effect on C. neoformans: screening assay; for log reduction at 300 µM: relative to 0.1% EtOH control, read-out: decrease in viable cells (converted); for attenuation of fungicidal activity on shortening by one methylene: versus corresponding oxatetradecanoic acid, 300 μM
Description: (§4) Panel A, survey of the effects of several oxatetradecanoic acids on the growth of C. neoformans. A culture of C. neoformans was grown at 30° C. in SAB media to midlog phase (A600 ~0.5). A single dose of fatty acid was then added to subcultures (final concentration=300 μM). EtOH(0.1%) was used as a negative control. Amphotericin B (AmB) was added (final concentraton=55 μM) as a positive control. Aliquots were withdrawn from the subcultures 0, 0.5, 2, 4, 7, 21, and 24 h after these additions and then absorbance at 600 nm was measured. All assays were done in duplicate or triplicate. A representative test is shown. Panel B, survey of the effects of oxatetradecanoic acids, dioxatetradecanoic acids and oxatridecanoic acids on the viability of C. neoformans. Fatty acid analog was added to the cultures as in Panel A. Aliquots were withdrawn 0.5, 2, 4, 7 or 8, and 24 h later and plated on SAB-agar at various dilutions to determine the number of viable organisms/ml culture. All assays were done in duplicate. Data from a representative test are expressed as the ratio of viable cells in treated cultures relative to a control culture that received 0.1% EtOH. A positive control culture received a single dose of amphotericin B (55 μM); Panel C, dose-dependent reduction in the viability of C. neoformans after addition of 4-oxatetradecanoic acid (O4) to cultures during log-phase growth at 30° C. in SAB. A single dose of the analog was given at T=0 h in the amount indicated and aliquots of the culture were withdrawn at various times to determine the number of viable cells. All assays were done in triplicate. A representative test is shown.
(§5) Saccharomyces cerevisiae strain YM2061 (MATa ura3-52 his3Δ200 ade2-101 lys2-801 met LEU2::pRY181 can1; Flick and Johnston, Mol. Cell. Biol. 10, 4757-4769 (1990), Candida albicans strain B311 (obtained from the American Type Tissue Culture, Rockville, Md.), or Cryptococcus neoformans strain L210425 (a clinical isolate that is part of the permanent culture collection of the Mycology Laboratory, Barnes Hospital, St. Louis, Mo.) were grown overnight at 30 C. The S. cerevisiae strain was incubated in YPD medium (1% bacto-yeast extract, Gibco, Long Island, N.Y.), 2% bacto-peptone (Gibco), 2% dextrose). The C. albicans and C. neoformans strains were grown in Sabouraud's media (SAB; 2% (w/v) dextrose, 1% bacto-peptone). The following morning the cultures were diluted into fresh medium to the desired density at 600 nm (early log phase), and subsequently incubated in a rotary shaker at 30° C. until an A600 =0.5 (mid log phase) was achieved. The culture was then divided into 10 ml aliquots. A single 10 μl aliquot of a stock solution of fatty acid analog (prepared in various concentrations using absolute ethanol) was added to the culture so that the final concentration of the compound was 100-500 μM (T=0). Ten microliters of ethanol alone was added to one 10 ml culture which served as the negative control. Amphotericin B (AmB; in the form of Fungizone, Squibb) was added (final concentration=55 μM) to another culture which served as the positive control. At T=0 and 0.5-24 h after addition of fatty acid analog to the subcultures, an aliquot was removed for determining the density of the subculture at 600 nm. Cell viability was determined at each of these time points by (i) serially diluting the aliquot in 0.15M NaCl and counting cell number in a hemocytometer and (ii) plating 2-3 of the dilutions in triplicate onto plates of SAB/agar (C. albicans and C. neoformans) or YPD/agar (S. cerevisiae). These plates were subsequently incubated at 30° C. for 24-48 hr to allow for the growth of colonies. The data were expressed as the ratio of viable cells/ml in the fatty acid analog treated subculture to the number of viable cells/ml in the negative (ethanol) control culture.

C. neoformans [2] = assay: Growth of C. neoformans cultures (absorbance at 600 nm); type: cell-based, Cryptococcus neoformans
Description: as §4
as §5, with “Amphotericin B (AmB; in the form of Fungizone, Squibb) was added (final concentration=55 μM) to another culture which served as the positive control. At T=0 and 0.5-24 h after addition of fatty acid analog to the subcultures, an aliquot was removed for determining the density of the subculture at 600 nm.” left out, “These plates were subsequently incubated at 30° C. for 24-48 hr to allow for the growth of colonies.” left out, “culture. […]” for “culture.”

C. albicans = assay: Viability of C. albicans; type: cell-based; conditions: Candida albicans
Description: (§6) Oxatetradecanoic acids were added (final concentraton=25-500 μM) as a single dose to log phase cultures of C. alibcans grown in SAB at 30° C. (Panels A and B) and to log phase cultures of S. cerevisiae grown in YPD at 30° C. (Panels C and D). The results were compared to the number of viable organisms present in cultures treated with 0.1% EtOH alone. […] A single does of alphotericin B (final concentration=55 μM) was added to parallel cultures which served as positive controls. Assays were done in duplicate. Representative tests are shown.
as §5

S. cerevisiae = assay: Viability of S. cerevisiae; type: cell-based; conditions: Saccharomyces cerevisiae
Description: as §6, §5

[3] = Cryptococcus neoformans, 300 μM single dose

T2 sequence (P14743 whole entry): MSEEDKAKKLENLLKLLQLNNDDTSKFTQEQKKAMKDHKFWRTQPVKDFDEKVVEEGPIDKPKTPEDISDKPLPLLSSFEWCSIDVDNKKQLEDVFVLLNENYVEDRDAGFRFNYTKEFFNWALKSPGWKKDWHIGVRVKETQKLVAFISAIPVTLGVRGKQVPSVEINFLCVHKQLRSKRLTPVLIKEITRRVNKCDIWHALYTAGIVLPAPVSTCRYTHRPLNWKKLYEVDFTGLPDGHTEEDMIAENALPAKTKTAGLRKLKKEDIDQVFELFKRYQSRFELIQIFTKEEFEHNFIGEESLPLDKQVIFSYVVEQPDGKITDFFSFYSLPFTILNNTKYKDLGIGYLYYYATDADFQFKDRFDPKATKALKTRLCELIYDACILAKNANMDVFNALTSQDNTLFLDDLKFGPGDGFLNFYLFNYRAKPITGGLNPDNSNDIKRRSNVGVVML
T1 sequence (P30418 whole entry): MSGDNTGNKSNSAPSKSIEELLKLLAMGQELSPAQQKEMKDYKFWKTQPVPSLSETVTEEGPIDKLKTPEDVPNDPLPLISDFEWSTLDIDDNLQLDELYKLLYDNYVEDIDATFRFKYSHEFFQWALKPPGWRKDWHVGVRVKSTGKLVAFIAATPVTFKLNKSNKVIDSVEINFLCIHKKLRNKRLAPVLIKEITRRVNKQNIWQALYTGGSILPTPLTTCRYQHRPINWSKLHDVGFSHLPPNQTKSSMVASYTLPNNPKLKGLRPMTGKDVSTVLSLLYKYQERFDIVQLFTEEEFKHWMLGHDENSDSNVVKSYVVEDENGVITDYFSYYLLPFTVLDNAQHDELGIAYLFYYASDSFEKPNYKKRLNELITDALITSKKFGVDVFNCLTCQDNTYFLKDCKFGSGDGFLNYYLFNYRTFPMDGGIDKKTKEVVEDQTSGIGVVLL

CCCCCCCCCCCOCC(=O)SCCNC(=O)CCNC(=O)[C@H](O)C(C)(C)COP(=O)(O)OP(=O)(O)OC[C@H]1O[C@@H](n2cnc3c(N)ncnc32)[C@H](O)[C@@H]1OP(=O)(O)O [3-oxatetradecanoylCoA]
activity of analogCoA relative to myristoylCoA (C. albicans NMT): equivalent to myristate
activity of analogCoA relative to myristoylCoA (S. cerevisiae NMT): equivalent to myristate

COCCCCCCCCOCCC(=O)O [4,13 dioxatetradecanoic acid, 4,13-Dioxatetradecanoic acid]
fungicidal / fungistatic effect on C. neoformans (C. neoformans [1]; 300 μM single dose): did not convert O13 to an active analog

CCCCCCCCCCOCCC(=O)SCCNC(=O)CCNC(=O)[C@H](O)C(C)(C)COP(=O)(O)OP(=O)(O)OC[C@H]1O[C@@H](n2cnc3c(N)ncnc32)[C@H](O)[C@@H]1OP(=O)(O)O [4-oxatetradecanoylCoA]
activity of analogCoA relative to myristoylCoA (C. albicans NMT): -3 fold
activity of analogCoA relative to myristoylCoA (S. cerevisiae NMT): -3 fold

CCCCCCCCCOCCC(=O)O [4-oxatridecanoic acid, 4-Oxatridecanoic acid]
time needed to produce the decrease in viable cells (C. neoformans [1]; 300 μM single dose): 6 to 7 h
log reduction at 300 µM (C. neoformans [1]; [3]): 3
attenuation of fungicidal activity on shortening by one methylene (C. neoformans [1]): 10 fold

COCCCCCCCOCCCC(=O)O [5,13 dioxatetradecanoic acid, 5,13-Dioxatetradecanoic acid]
fungicidal / fungistatic effect on C. neoformans (C. neoformans [1]; 300 μM single dose): did not convert O13 to an active analog

CCCCCCCCOCCCC(=O)O [5-oxatridecanoic acid, 5-Oxatridecanoic acid]
fungicidal / fungistatic effect on C. neoformans (C. neoformans [1]; 300 μM single dose): not active
attenuation of fungicidal activity on shortening by one methylene (C. neoformans [1]): 10 fold

C[C@@H]1[C@H](O)[C@@H](C)/C=C/C=C/C=C/C=C/C=C/C=C/C=C/[C@H](O[C@@H]2O[C@H](C)[C@@H](O)[C@H](N)[C@@H]2O)C[C@@H]2O[C@](O)(C[C@@H](O)C[C@@H](O)[C@H](O)CC[C@@H](O)C[C@@H](O)CC(=O)O[C@H]1C)C[C@H](O)[C@H]2C(=O)O [Amphotericin B, reference compound]
effect on growth of C. neoformans, as determined by optical density (C. neoformans [2]; 55 μM, positive control): growth arrest
log reduction at 55 µM (C. neoformans [1]; Cryptococcus neoformans, read-out: reduction in viable cell number): 6

CCCCCCCCCOCCCC(=O)O [O5, 5-oxatetradecanoic acid]
fungicidal / fungistatic effect on C. neoformans (C. neoformans [1]; 300 μM single dose): fungicidal
log reduction at 300 µM (C. neoformans [1]; [3]): 3
log reduction at 300 µM (C. albicans; 300 μM, 2 hr after addition, read-out: reductions in the number of viable C. albicans): < 0.699
log reduction at 500 µM (C. albicans; 500 μM, read-out: reduction in the number of viable organisms (C. albicans)): 1 to 2
log reduction at 300 µM (S. cerevisiae; 300 μM, 2 hr after addition, read-out: reductions in the number of viable S. cerevisiae): < 0.699
log reduction at 500 µM (S. cerevisiae; 500 μM, read-out: reduction in the number of viable organisms (S. cerevisiae)): 1 to 2

CCCCCCCOCCCCCC(=O)O [O7]
fungicidal / fungistatic effect on C. neoformans (C. neoformans [1]; 300 μM single dose): no measurable effect on the growth

CCCCCCOCCCCCCC(=O)O [O8]
fungicidal / fungistatic effect on C. neoformans (C. neoformans [1]; 300 μM single dose): no measurable effect on the growth

CCCCOCCCCCCCCC(=O)O [O10]
fungicidal / fungistatic effect on C. neoformans (C. neoformans [1]; 300 μM single dose): no measurable effect on the growth

CCCOCCCCCCCCCC(=O)O [O11, 11-Oxatetradecanoic acid]
effect on growth of C. neoformans, as determined by optical density (C. neoformans [2]; single 300 μM dose, exponential phase, 30° C., SAB, up to 24 h): virtually no effect on growth
fungicidal / fungistatic effect on C. neoformans (C. neoformans [1]; 300 μM single dose): no measurable effect on the growth

CCOCCCCCCCCCCC(=O)O [O12]
fungicidal / fungistatic effect on C. neoformans (C. neoformans [1]; 300 μM single dose): no measurable effect on the growth
